Data taken from PMC6443876, “Molecular structure of a 5,10‐methylenetetrahydrofolate dehydrogenase from the silkworm Bombyx mori” (FEBS Open Bio, 2019).
Values belong to the molecule of their own block, whether it stands above or below them.

Assays:
bmMTHFD [1] = biological target: T1, bmMTHFD (Bombyx mori, UniProt H9IYM1, D120A); test: decrease in absorption at […] nm, Michaelis-Menten fit; type: biochemical; conditions: cyclohydrolase activity; 0.1 M potassium maleate pH 7.4, 0.02 M 2-mercaptoethanol, 30 °C
T1 construct: gene method; full-length ORF (906 bp, 301 residues, 32 733 Da), pET-15b (NdeI/BamHI); homodimer ~63 kDa; cDNA from larval fat body

bmMTHFD [2] = biological target: T2, bmMTHFD (Bombyx mori, UniProt H9IYM1, Q97A); test: as above; type: biochemical; conditions: cyclohydrolase activity; 0.1 M potassium maleate pH 7.4, 0.02 M 2-mercaptoethanol, 30 °C
T2 construct: gene method; full-length ORF (906 bp, 301 residues, 32 733 Da), pET-15b (NdeI/BamHI); homodimer ~63 kDa; cDNA from larval fat body

bmMTHFD [3] = biological target: T3, bmMTHFD (Bombyx mori, UniProt H9IYM1); test: as above; type: biochemical; conditions: cyclohydrolase activity; 0.1 M potassium maleate pH 7.4, 0.02 M 2-mercaptoethanol, 30 °C
T3 construct: gene method; full-length ORF (906 bp, 301 residues, 32 733 Da), pET-15b (NdeI/BamHI); homodimer ~63 kDa; cDNA from larval fat body
T3 sequence (H9IYM1 1-301): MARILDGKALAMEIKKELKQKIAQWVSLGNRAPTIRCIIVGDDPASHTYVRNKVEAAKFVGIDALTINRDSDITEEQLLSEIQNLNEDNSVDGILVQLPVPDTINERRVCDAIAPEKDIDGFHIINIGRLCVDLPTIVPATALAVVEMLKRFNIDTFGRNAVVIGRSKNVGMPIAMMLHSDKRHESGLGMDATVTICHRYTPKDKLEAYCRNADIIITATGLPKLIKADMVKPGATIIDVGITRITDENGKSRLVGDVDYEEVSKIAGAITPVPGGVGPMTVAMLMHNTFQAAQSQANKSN

bmMTHFD [4] = biological target: T4, bmMTHFD (Bombyx mori, UniProt H9IYM1, K53A); test: as above; type: biochemical; conditions: cyclohydrolase activity; 0.1 M potassium maleate pH 7.4, 0.02 M 2-mercaptoethanol, 30 °C
T4 construct: gene method; full-length ORF (906 bp, 301 residues, 32 733 Da), pET-15b (NdeI/BamHI); homodimer ~63 kDa; cDNA from larval fat body

bmMTHFD [5] = biological target: T3, bmMTHFD; test: endpoint absorbance at […] nm, Michaelis-Menten fit; type: biochemical; conditions: dehydrogenase activity, 20 mM sodium phosphate pH 6.5, 30 mM 2-mercaptoethanol, 28 °C
bmMTHFD [6] = biological target: T4, bmMTHFD; test: endpoint absorbance at […] nm, Michaelis-Menten fit; type: biochemical; conditions: dehydrogenase activity, 20 mM sodium phosphate pH 6.5, 30 mM 2-mercaptoethanol, 28 °C
bmMTHFD [7] = biological target: T2, bmMTHFD; test: endpoint absorbance at […] nm, Michaelis-Menten fit; type: biochemical; conditions: dehydrogenase activity; NADP+ as cofactor; 20 mM sodium phosphate pH 6.5, 30 mM 2-mercaptoethanol, 28 °C
bmMTHFD [8] = biological target: T5, bmMTHFD (Bombyx mori, UniProt H9IYM1, S46A); test: endpoint absorbance at […] nm, Michaelis-Menten fit; type: biochemical; conditions: dehydrogenase activity, 20 mM sodium phosphate pH 6.5, 30 mM 2-mercaptoethanol, 28 °C
T5 construct: gene method; full-length ORF (906 bp, 301 residues, 32 733 Da), pET-15b (NdeI/BamHI); homodimer ~63 kDa; cDNA from larval fat body

bmMTHFD [9] = biological target: T1, bmMTHFD; test: endpoint absorbance at […] nm, Michaelis-Menten fit; type: biochemical; conditions: dehydrogenase activity; MTHF as co-substrate; 20 mM sodium phosphate pH 6.5, 30 mM 2-mercaptoethanol, 28 °C
[10] = biological target: Bombyx mori 5,10-methylenetetrahydrofolate dehydrogenase (Bombyx mori); test: SEC; Superdex 200 analytical gel filtration, calibrated with protein standards (thyroglobulin, globulin, ovalbumin, myoglobin); bmMTHFD eluted at 205 mL, corresponding to 63 kDa

T1 sequence (H9IYM1 entry or part of it D120A): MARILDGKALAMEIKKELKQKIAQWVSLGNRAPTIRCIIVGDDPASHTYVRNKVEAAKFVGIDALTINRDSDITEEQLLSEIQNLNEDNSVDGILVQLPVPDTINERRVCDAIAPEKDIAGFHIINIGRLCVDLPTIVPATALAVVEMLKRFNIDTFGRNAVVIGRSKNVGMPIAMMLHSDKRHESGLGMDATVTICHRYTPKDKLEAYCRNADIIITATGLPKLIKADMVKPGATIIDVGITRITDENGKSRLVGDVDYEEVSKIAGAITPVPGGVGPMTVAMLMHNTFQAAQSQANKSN
T4 sequence (H9IYM1 entry or part of it K53A): as the sequence (H9IYM1 entry or part of it D120A) above, with K53A, A120D counted along it
T5 sequence (H9IYM1 entry or part of it S46A): as the sequence (H9IYM1 entry or part of it D120A) above, with S46A, A120D counted along it
T2 sequence (H9IYM1 entry or part of it Q97A): as the sequence (H9IYM1 entry or part of it D120A) above, with Q97A, A120D counted along it

Molecule: Nc1nc2c(c(=O)[nH]1)N1CN(c3ccc(C(=O)N[C@@H](CCC(=O)O)C(=O)O)cc3)C[C@H]1CN2 [MTHF]
- WT (bmMTHFD [5]; NADP+ as cofactor): 0.51 (± 3.3 × 10^−2) mM
- K53A (bmMTHFD [6]; NADP+ as cofactor): 1.1 (± 1.8 × 10^−2) mM
- Q97A (bmMTHFD [7]): 0.81 (± 2.8 × 10^−2) mM
- S46A (bmMTHFD [8]; NADP+ as cofactor): 0.19 (± 4.8 × 10^−3) mM

Molecule: NC(=O)c1ccc[n+]([C@@H]2O[C@H](COP(=O)(O)OP(=O)(O)OC[C@H]3O[C@@H](n4cnc5c(N)ncnc54)[C@H](O)[C@@H]3O)[C@@H](O)[C@H]2O)c1 [NAD^+]
- D120A (bmMTHFD [9]): 2.0 (± 9.0 × 10^−2) mM
- WT (bmMTHFD [5]; MTHF as co-substrate): 0.27 (± 2.0 × 10^−2) mM

Other lines, results leading:

- D120A (bmMTHFD [1]): 0.23 (± 2.5 × 10^−2) mM
- Q97A (bmMTHFD [2]): 0.019 (± 2.5 × 10^−3) mM
- WT (bmMTHFD [3]): 0.13 (± 6.0 × 10^−3) mM
- K53A (bmMTHFD [4]): 0.16 (± 1.5 × 10^−2) mM
Molecule: Nc1nc2c(c(=O)[nH]1)[N+]1=CN(c3ccc(C(=O)N[C@@H](CCC(=O)O)C(=O)O)cc3)C[C@H]1CN2 [5,10-methenyl-THF]

- D120A (bmMTHFD [9]): 2.0 (± 1.4 × 10^−1) mM
- WT (bmMTHFD [5]; MTHF as co-substrate): 0.22 (± 1.0 × 10^−2) mM
- K53A (bmMTHFD [6]; MTHF as co-substrate): 0.62 (± 6.5 × 10^−2) mM
- S46A (bmMTHFD [8]; MTHF as co-substrate): 0.98 (± 1.3 × 10^−1) mM
Molecule: NC(=O)c1ccc[n+]([C@@H]2O[C@H](COP(=O)(O)OP(=O)(O)OC[C@H]3O[C@@H](n4cnc5c(N)ncnc54)[C@H](OP(=O)(O)O)[C@@H]3O)[C@@H](O)[C@H]2O)c1 [NADP^+]

- stoichiometry N [10]: 2
Molecule: Bombyx mori 5,10-methylenetetrahydrofolate dehydrogenase (enzyme)
